Key:
Brucella abortus CASDH = biological target: T1, Brucella abortus CASDH (Brucella abortus, UniProt Q2YPK8); conditions: endogenous putrescine, BL21speD, coexpressed with CASDC
T1 construct: gene BAB1_0364

[1] = biological target: T2, Psychromonas marina CASDH (Psychromonas marina, UniProt A0ABQ6DYR2); assay: LC-MS of benzoylated spermidine in E. coli extract; type: cell-based; conditions: endogenous putrescine, BL21speD, coexpressed with CASDC
T2 sequence (A0ABQ6DYR2 1-405): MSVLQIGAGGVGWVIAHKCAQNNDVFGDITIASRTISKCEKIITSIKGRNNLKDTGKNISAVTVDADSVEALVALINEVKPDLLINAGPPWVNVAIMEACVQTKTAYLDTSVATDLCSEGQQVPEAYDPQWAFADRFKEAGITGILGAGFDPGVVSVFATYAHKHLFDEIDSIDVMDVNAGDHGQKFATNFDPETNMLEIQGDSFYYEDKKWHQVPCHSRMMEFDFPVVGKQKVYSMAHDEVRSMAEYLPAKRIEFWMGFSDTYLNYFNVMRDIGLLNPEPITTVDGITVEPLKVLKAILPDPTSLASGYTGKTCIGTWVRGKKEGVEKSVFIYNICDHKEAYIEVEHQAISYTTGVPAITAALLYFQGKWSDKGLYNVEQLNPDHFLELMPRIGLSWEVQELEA

Which “LC-MS of benzoylated spermidine in E. coli extract” value (Brucella abortus CASDH) does the source give for NCCCCN [putrescine] here?
Its value is “all CASDH/CASDC pairs were able to synthesize spermidine in the spermidine-void BL21speD cells”.

And the “LC-MS of benzoylated spermidine in E. coli extract” value [1]?
The value was “all CASDH/CASDC pairs were able to synthesize spermidine in the spermidine-void BL21speD cells”.

Reference: PMC11999265, “New routes for spermine biosynthesis” (The Journal of Biological Chemistry, 2025)
